Data published in article PMC4609575 (The international journal of biochemistry & cell biology, 2010).
Where two headings read alike, the source gives them in different places.

How the values were obtained:
hα3β4 AChR [1] = molecular target: T1, hα3β4 AChR (Homo sapiens, UniProt P30926+P32297); format: binding; conditions: for nH: radioligand [3H]ibogaine
hα3β4 AChR [2] = molecular target: T1, hα3β4 AChR; format: binding; conditions: for nH: radioligand [3H]TCP
hα3β4 AChR [3] = molecular target: T1, hα3β4 AChR; assay: Binding kinetics by non-linear chromatography on the CMAC-hα3β4 AChR column
hα3β4 AChR [4] = molecular target: T1, hα3β4 AChR; assay: cell-based; format: cell-based
hα3β4 AChR [5] = molecular target: T1, hα3β4 AChR; format: binding; conditions: for ΔG^20: 293 K; for Ea (energy of activation of the dissociation process): Arrhenius plot; for ΔH°: van't Hoff plot
rat α3β4 AChRs = conditions: 86Rb+ efflux, rat α3β4 AChRs ref Hernandez et al., 2000; cited from earlier work
hα3β4 AChR [6] = molecular target: T1, hα3β4 AChR; assay: Equilibrium binding of [3H]ibogaine to hα3β4 AChR membranes
[7] = Desensitized state (1 µM (−)-nicotine)
[8] = AChR in the resting state (κ-BTx), 20 °C
[9] = Epibatidine treated column (desensitized state)
[10] = κ-BTx treated column (resting state)

T1 sequence (P32297 32-505): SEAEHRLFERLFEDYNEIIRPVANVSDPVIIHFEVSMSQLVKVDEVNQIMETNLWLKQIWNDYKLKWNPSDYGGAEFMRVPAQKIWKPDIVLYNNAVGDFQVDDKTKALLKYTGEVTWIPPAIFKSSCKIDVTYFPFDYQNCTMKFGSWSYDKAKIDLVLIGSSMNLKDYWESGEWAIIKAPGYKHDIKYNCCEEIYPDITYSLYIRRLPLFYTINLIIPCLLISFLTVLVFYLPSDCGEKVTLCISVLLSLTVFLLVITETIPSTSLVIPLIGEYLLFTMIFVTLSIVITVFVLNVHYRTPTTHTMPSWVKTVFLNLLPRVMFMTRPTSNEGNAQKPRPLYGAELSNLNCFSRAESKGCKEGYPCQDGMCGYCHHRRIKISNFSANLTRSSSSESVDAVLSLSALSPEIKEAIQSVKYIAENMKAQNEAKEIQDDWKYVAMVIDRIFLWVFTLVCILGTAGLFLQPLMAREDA
T1 sequence (P30926 22-498): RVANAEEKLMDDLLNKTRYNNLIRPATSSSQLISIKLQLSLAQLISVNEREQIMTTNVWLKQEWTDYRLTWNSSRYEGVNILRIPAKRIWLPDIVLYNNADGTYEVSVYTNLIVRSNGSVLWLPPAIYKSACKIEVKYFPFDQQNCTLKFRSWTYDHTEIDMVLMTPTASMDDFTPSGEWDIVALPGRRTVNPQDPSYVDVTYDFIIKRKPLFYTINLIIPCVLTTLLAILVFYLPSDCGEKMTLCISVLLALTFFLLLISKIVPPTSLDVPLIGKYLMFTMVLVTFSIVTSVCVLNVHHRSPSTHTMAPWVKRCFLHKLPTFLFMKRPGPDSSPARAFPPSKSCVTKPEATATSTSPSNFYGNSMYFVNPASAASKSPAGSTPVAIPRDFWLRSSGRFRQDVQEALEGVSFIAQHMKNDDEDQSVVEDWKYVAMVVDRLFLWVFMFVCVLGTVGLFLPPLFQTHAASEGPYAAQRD

7-ethyl-6,2,7,8,9,10,12,13-octahydro-2-methoxy-6,9-methano 5H-pyrido(1′,2′:1,2-azepine (4,5-)indole) [Ibogaine]
nH (hα3β4 AChR [1]; [7]): 1.01 ±0.11 | nH (hα3β4 AChR [1]; Resting state): 0.82 ± 0.08 | fold higher affinity for desensitized/nicotine-bound than resting/no ligand AChR (hα3β4 AChR [1]; [3H]ibogaine competition, p < 0.05): ~ 2.8 fold | nH (hα3β4 AChR [2]; [7]): 0.95 ±0.13 | nH (hα3β4 AChR [2]; Resting state): 0.79 ± 0.13 | fold higher affinity for desensitized than resting AChR (hα3β4 AChR [2]; [3H]TCP competition): ~ 2.6 fold | koff (hα3β4 AChR [3]): 0.078 ± 0.002 s⁻¹ | kon (hα3β4 AChR [3]): 300000 ± 10000 M⁻¹ s⁻¹ | ΔG (hα3β4 AChR [3]): -8.82 ± 0.024 kcal/mol | Ka (association constant) (hα3β4 AChR [3]; [8]): 3.47 ± 0.12 µM⁻¹ | koff (hα3β4 AChR [3]; [8]): 0.088 ± 0.001 s⁻¹ | kon (hα3β4 AChR [3]; AChR in the resting state (κ-BTx), kon = koff·Ka): 310000 ± 20000 M⁻¹ s⁻¹ | association rate constants kon (order of magnitude) (hα3β4 AChR [3]; both conformational states): ~ 10^5 M^−1 s^−1 | nH (Hill coefficient) (hα3β4 AChR [4]): 1.24 ± 0.07 | fold higher potency than PCP in inhibiting (±)-epibatidine-induced Ca2+ influx (hα3β4 AChR [4]; ibogaine IC50 versus PCP IC50): ~ 9 fold | ΔH^+ (enthalpy change of the transition state) (hα3β4 AChR [5]; [9]): 12.7 ± 1.8 kJmol^−1 | −TΔS° (hα3β4 AChR [5]; [9]): −29.4 ± 0.3 kJmol-^1 | ΔG^20 (hα3β4 AChR [5]; [9]): −37.0 ± 0.1 kJmol^−1 | Ea (energy of activation of the dissociation process) (hα3β4 AChR [5]; [9]): 15.1 ± 1.8 kJmol^−1 | ΔH° (hα3β4 AChR [5]; [9]): -1.82 ± 0.072 kcal/mol | ΔH^+ (enthalpy change of the transition state) (hα3β4 AChR [5]; [10]): 11.2 ± 0.7 kJmol^−1 | −TΔS° (hα3β4 AChR [5]; [10]): −26.2 ± 0.7 kJmol-^1 | ΔG^20 (hα3β4 AChR [5]; [10]): −36.7 ± 0.1 kJmol^−1 | Ea (energy of activation of the dissociation process) (hα3β4 AChR [5]; [10]): 13.7 ± 0.7 kJmol^−1 | ΔH° (hα3β4 AChR [5]; [10]): -2.51 ± 0.17 kcal/mol

Clc1ccc(C2CC3CCC2N3)cn1 (racemic) [(±)-epibatidine, (±)-Epibatidine]
nH (Hill coefficient) (hα3β4 AChR [4]; activation of the hα3β4 AChR, Ca2+ influx): 1.21 ± 0.06

c1ccc(C2(N3CCCCC3)CCCCC2)cc1 [PCP, phencyclidine]
IC50 (rat α3β4 AChRs): 7 ± 1.3 µM | Ki (hα3β4 AChR [1]): 17 ± 2 µM | nH (hα3β4 AChR [1]; Resting state): 0.88 ± 0.07 | times lower affinity compared to ibogaine (hα3β4 AChR [1]; resting hα3β4 AChR, Table 2 values): 10–16 times | Ki (hα3β4 AChR [2]): 10 ± 2 µM | nH (hα3β4 AChR [2]; Resting state): 0.87 ± 0.10 | IC50 (hα3β4 AChR [4]): 8.5 ± 1.4 µM | fold higher inhibitory potency in the hα3β4 AChR than in the muscle AChR (hα3β4 AChR [4]; compared with muscle AChR value of ref Fryer and Lukas, 1999): ~ 2 fold | nH (Hill coefficient) (hα3β4 AChR [4]; inhibition of (±)-epibatidine-induced Ca2+ influx, HEK293-hα3β4 cells): 0.92 ± 0.02

[^3H]ibogaine
specific activity (number of binding sites, Bmax) (hα3β4 AChR [6]; HEK293-hα3β4 membranes, x-intersect of Scatchard plot): 3.9 ± 0.4 pmol/mg protein | Kd (hα3β4 AChR [6]; resting (no ligand) state, Rosenthal-Scatchard plot): 0.46 ± 0.06 µM
